Experimental data: PubChem BioAssay AID2060507 (Molecular Pharmacology Branch, DTP, NCI, 2025)

System: 519858-162-T-J1-PDC complex spheroid viability
Assay: Anticancer human tumor 519858-162-T-J1-PDC patient-derived colon adenocarcinoma cell line growth inhibition [GQUAD]
Conditions: for IC50: curve of first compound; for viability, T/C: stronger effect = lower value; active = viability on the fitted dose curve at most 10% of control; inactive = the rest
In short: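 Viability of tumor cells grown as complex spheroids with endothelial and stromal cells, exposed to drug combinations. Top concentration at or near clinical Cmax (else 10 microM), diluted in half-log increments.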

[1] = second compound 0.0316 µM, first compound 0.0316 µM
[2] = second compound 0.0316 µM, first compound 0.1 µM
[3] = second compound 0.0316 µM, first compound 0.316 µM
[4] = second compound 0.0316 µM, first compound 1 µM
[5] = second compound 0.0316 µM, first compound 3.16 µM
[6] = second compound 0.0316 µM, first compound 10 µM
[7] = second compound 0.1 µM, first compound 0.0316 µM
[8] = second compound 0.1 µM, first compound 0.1 µM
[9] = second compound 0.1 µM, first compound 0.316 µM
[10] = second compound 0.1 µM, first compound 1 µM
[11] = second compound 0.1 µM, first compound 3.16 µM
[12] = second compound 0.1 µM, first compound 10 µM
[13] = second compound 0.316 µM, first compound 0.0316 µM
[14] = second compound 0.316 µM, first compound 0.1 µM
[15] = second compound 0.316 µM, first compound 0.316 µM
[16] = second compound 0.316 µM, first compound 1 µM
[17] = second compound 0.316 µM, first compound 3.16 µM
[18] = second compound 0.316 µM, first compound 10 µM
[19] = second compound 1 µM, first compound 0.0316 µM
[20] = second compound 1 µM, first compound 0.1 µM
[21] = second compound 1 µM, first compound 0.316 µM
[22] = second compound 1 µM, first compound 1 µM
[23] = second compound 1 µM, first compound 3.16 µM
[24] = second compound 1 µM, first compound 10 µM
[25] = second compound 3.16 µM, first compound 0.0316 µM
[26] = second compound 3.16 µM, first compound 0.1 µM
[27] = second compound 3.16 µM, first compound 0.316 µM
[28] = second compound 3.16 µM, first compound 1 µM
[29] = second compound 3.16 µM, first compound 3.16 µM
[30] = second compound 3.16 µM, first compound 10 µM
[31] = second compound 10 µM, first compound 0.0316 µM
[32] = second compound 10 µM, first compound 0.1 µM
[33] = second compound 10 µM, first compound 0.316 µM
[34] = second compound 10 µM, first compound 1 µM
[35] = second compound 10 µM, first compound 3.16 µM
[36] = second compound 10 µM, first compound 10 µM
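For viability, T/C in this document: 100% = DMSO vehicle control viability.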

COc1cc(C2c3cc4c(cc3C(OC3OC5COC(C)OC5C(O)C3O)C3COC(=O)C23)OCO4)cc(OC)c1O (stereo not drawn) + CN(C)c1ccc(Nc2c3ccc(NC(=O)CCN4CCCC4)cc3nc3cc(NC(=O)CCN4CCCC4)ccc23)cc1
inactive: viability, T/C [1] 87.2% | viability, T/C [2] 80.1% | viability, T/C [3] 83.5% | viability, T/C [4] 69.2% | viability, T/C [5] 80.7% | viability, T/C [6] 103% | viability, T/C [7] 68.6% | viability, T/C [8] 81.8% | viability, T/C [9] 79.6% | viability, T/C [10] 94.3% | viability, T/C [11] 60.8% | viability, T/C [12] 84% | viability, T/C [13] 93.5% | viability, T/C [14] 95.8% | viability, T/C [15] 80.5% | viability, T/C [16] 61.8% | viability, T/C [17] 77% | viability, T/C [18] 62.7% | viability, T/C [19] 85.4% | viability, T/C [20] 65.2% | viability, T/C [21] 64.9% | viability, T/C [22] 65.9% | viability, T/C [23] 77% | viability, T/C [24] 80.3% | viability, T/C [25] 59.8% | viability, T/C [26] 76.2% | viability, T/C [27] 65.3% | viability, T/C [28] 74.1% | viability, T/C [29] 101% | viability, T/C [30] 67.6% | viability, T/C [31] 55.6% | viability, T/C [32] 69.2% | viability, T/C [33] 73.6% | viability, T/C [34] 64.3% | viability, T/C [35] 74.8% | viability, T/C [36] 83.8%
> 10 µM: IC50 (second compound 0.0316 µM) | IC50 (second compound 0.1 µM) | IC50 (second compound 0.316 µM) | IC50 (second compound 1 µM) | IC50 (second compound 3.16 µM) | IC50 (second compound 10 µM)

COc1cccc2c1C(=O)c1c(O)c3c(c(O)c1C2=O)CC(O)(C(=O)CO)CC3OC1CC(N)C(O)C(C)O1 (stereo not drawn) + CN(C)c1ccc(Nc2c3ccc(NC(=O)CCN4CCCC4)cc3nc3cc(NC(=O)CCN4CCCC4)ccc23)cc1
inactive: viability, T/C [1] 80.7% | viability, T/C [2] 124% | viability, T/C [3] 97.7% | viability, T/C [4] 72% | viability, T/C [5] 71% | viability, T/C [6] 58.1% | viability, T/C [7] 90.6% | viability, T/C [8] 84.6% | viability, T/C [9] 104% | viability, T/C [10] 80.8% | viability, T/C [11] 60.5% | viability, T/C [12] 60.1% | viability, T/C [13] 88.4% | viability, T/C [14] 58.5% | viability, T/C [15] 79.7% | viability, T/C [16] 65.1% | viability, T/C [17] 62.2% | viability, T/C [18] 75.5% | viability, T/C [19] 85.5% | viability, T/C [20] 71.9% | viability, T/C [21] 56.4% | viability, T/C [22] 100% | viability, T/C [23] 65.2% | viability, T/C [24] 47.1% | viability, T/C [25] 74.9% | viability, T/C [26] 60.6% | viability, T/C [27] 80% | viability, T/C [28] 66.8% | viability, T/C [29] 63.2% | viability, T/C [30] 55.8% | viability, T/C [31] 57.1% | viability, T/C [32] 62.9% | viability, T/C [33] 57.1% | viability, T/C [34] 60.1% | viability, T/C [35] 50.3% | viability, T/C [36] 68.8%
8.56 µM: IC50 (second compound 1 µM)
> 10 µM: IC50 (second compound 0.0316 µM) | IC50 (second compound 0.1 µM) | IC50 (second compound 0.316 µM) | IC50 (second compound 3.16 µM) | IC50 (second compound 10 µM)

COc1ncnc(C2CC2)c1-c1ncc2cnn(Cc3ccc(-c4nc(C(F)(F)F)cn4C(C)C)cc3)c2n1 + CN(C)c1ccc(Nc2c3ccc(NC(=O)CCN4CCCC4)cc3nc3cc(NC(=O)CCN4CCCC4)ccc23)cc1
inactive: viability, T/C [1] 120% | viability, T/C [2] 83% | viability, T/C [3] 103% | viability, T/C [4] 89.3% | viability, T/C [5] 99.6% | viability, T/C [6] 115% | viability, T/C [7] 93.4% | viability, T/C [8] 97.8% | viability, T/C [9] 102% | viability, T/C [10] 75.6% | viability, T/C [11] 91.4% | viability, T/C [12] 103% | viability, T/C [13] 86% | viability, T/C [14] 117% | viability, T/C [15] 116% | viability, T/C [16] 76% | viability, T/C [17] 66.5% | viability, T/C [18] 84.9% | viability, T/C [19] 85.1% | viability, T/C [20] 80.7% | viability, T/C [21] 67.5% | viability, T/C [22] 68% | viability, T/C [23] 73% | viability, T/C [24] 72.4% | viability, T/C [25] 114% | viability, T/C [26] 79.7% | viability, T/C [27] 52.2% | viability, T/C [28] 56.6% | viability, T/C [29] 54% | viability, T/C [30] 69.8% | viability, T/C [31] 58.7% | viability, T/C [32] 53.3% | viability, T/C [33] 99.4% | viability, T/C [34] 61.9% | viability, T/C [35] 51.7% | viability, T/C [36] 104%
> 10 µM: IC50 (second compound 0.0316 µM) | IC50 (second compound 0.1 µM) | IC50 (second compound 0.316 µM) | IC50 (second compound 1 µM) | IC50 (second compound 3.16 µM) | IC50 (second compound 10 µM)

COc1ccc([C@@H](O)c2cc(-c3ncnc4cc(N5CCOCC5)ccc34)c(F)cc2Cl)nn1 + Cc1[nH]c2ccc(F)cc2c1-c1nc2c3cccnc3c3ncccc3c2[nH]1
9.78 µM: IC50 (second compound 10 µM)
5.82 µM: IC50 (second compound 3.16 µM)
inactive: viability, T/C [1] 79% | viability, T/C [2] 99.7% | viability, T/C [3] 71.4% | viability, T/C [4] 86.4% | viability, T/C [5] 74.1% | viability, T/C [6] 53% | viability, T/C [7] 82.9% | viability, T/C [8] 92.8% | viability, T/C [9] 88.3% | viability, T/C [10] 72.6% | viability, T/C [11] 85.1% | viability, T/C [12] 54.7% | viability, T/C [13] 96% | viability, T/C [14] 104% | viability, T/C [15] 64% | viability, T/C [16] 72.7% | viability, T/C [17] 89.4% | viability, T/C [18] 70.2% | viability, T/C [19] 123% | viability, T/C [20] 90.4% | viability, T/C [21] 87% | viability, T/C [22] 77.5% | viability, T/C [23] 97.4% | viability, T/C [24] 42.8% | viability, T/C [25] 66.9% | viability, T/C [26] 87.5% | viability, T/C [27] 84.9% | viability, T/C [28] 64.9% | viability, T/C [29] 65.5% | viability, T/C [30] 37.9% | viability, T/C [31] 58.5% | viability, T/C [32] 86.9% | viability, T/C [33] 58.9% | viability, T/C [34] 82.2% | viability, T/C [35] 70.5% | viability, T/C [36] 49.5%
> 10 µM: IC50 (second compound 0.0316 µM) | IC50 (second compound 0.1 µM) | IC50 (second compound 0.316 µM) | IC50 (second compound 1 µM)
